Format in all cases: cell-based
In assay [1] the test system is P. aeruginosa strain PAO1. Kind of assay: Biofilm prevention screen (96-well microplate, crystal violet). To be noted: Pseudomonas aeruginosa, positive = prevention, negative = enhancement of biofilm formation, quadruplicate, read-out: average percentage reduction of biofilm formed relative to DMSO controls. The method, boiled down: (§1)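 Three strains in 96-well round-bottom plates, compound at 250–500 μM, 160 μM or 32 μM, 16–26 h at 200 rpm (30° C Pseudomonas, 37° C staphylococcus). Staining: CV 45 min at room temperature, ethanol extraction, A586. Reported as % biofilm reduction vs DMSO, n = 4.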

In assay [2] the test system is P. fluorescens strain ATCC 13525. The description is as above. The following applies: Pseudomonas fluorescens, positive = prevention, negative = enhancement of biofilm formation, quadruplicate, read-out: average percentage reduction of biofilm formed relative to DMSO controls; for inhibition at 32 µM: ATCC13525, 32 μM; for inhibition at 160 µM: ATCC13525, 160 μM; for inhibition at 390 µM: ATCC13525, 390 μM. The method, boiled down: as §1

For assay [3], the system named is S. epidermidis strain ATCC 35984. Described as above. To be noted: Staphylococcus epidermidis, positive = prevention, negative = enhancement of biofilm formation, quadruplicate, read-out: average percentage reduction of biofilm formed relative to DMSO controls; for inhibition at 32 µM: ATCC35984, 32 μM; for inhibition at 160 µM: ATCC35984, 160 μM; for inhibition at 390 µM: ATCC35984, 390 μM. In outline: as §1

In assay [4] the test system is P. aeruginosa strain PAO1. Briefly: Improved biofilm dispersion screen (already-formed biofilms, crystal violet). To be noted: Pseudomonas aeruginosa, 30 mM NaOH step, positive = dispersion, negative = enhancement of pre-existing biofilm, quadruplicate, read-out: average percentage reduction of biofilm relative to the two control values (dispersion). The method, boiled down: (§2)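 Biofilms pre-grown 24 h without compound, then given fresh medium with compound at 390 μM for another 22–26 h. NaOH wash in PBS (0 mM S. epidermidis, 20 mM P. fluorescens, 30 mM P. aeruginosa; 30 min, room temperature), then crystal violet staining. Percent biofilm reduction calculated against t0 and DMSO t24 controls, quadruplicates; negative values mean enhancement.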

The subject of assay [5] is P. fluorescens strain ATCC 13525. The assay is described as above. The following applies: Pseudomonas fluorescens, ATCC13525, 20 mM NaOH step, positive = dispersion, negative = enhancement of pre-existing biofilm, quadruplicate, read-out: average percentage reduction of biofilm relative to the two control values (dispersion). In outline:
as §2

Assay [6] relates to S. epidermidis strain ATCC 35984. Described as above. The following applies: Staphylococcus epidermidis, ATCC35984, no NaOH, positive = dispersion, negative = enhancement of pre-existing biofilm, quadruplicate, read-out: average percentage reduction of biofilm relative to the two control values (dispersion). In outline: as §2

Turning to `CCCCCCCCCCNC(=O)[C@@H]1CCN1C(=O)OC(C)(C)C` [Compound 285, N-(tert-Butoxycarbonyl)-(S)-(−)-2-azetidinecarboxylic acid n-decyl amide], the inhibition at 32 µM is 7% in assay [1], -12% in assay [2] and 2% in assay [3]. Further, the figures for the inhibition at 160 µM in assay [1], in assay [2] and in assay [3] were -20%, -44% and 17%, respectively. For the same compound, the inhibition at 390 µM in assay [1] was -21%; in assay [2], -32%; in assay [3] it was 66%; in assay [4] it was -37%; in assay [5], -74%; in assay [6], 0%.

As to `CCCCCCNC(=O)[C@@H]1CCN1` [Compound 287], the inhibition at 32 µM in assay [1] was -1%; in assay [2] it was -42%; in assay [3], 74%. Moreover, the values for the inhibition at 160 µM in assay [1], in assay [2] and in assay [3] were 11%, -7% and 101%, respectively. The inhibition at 390 µM is -2% in assay [1]; 40% in assay [2]; 101% in assay [3]; -70% in assay [4]; -18% in assay [5]; 71% in assay [6].

With `CCCCCCCCNC(=O)[C@@H]1CCN1` [Compound 288], the values for the inhibition at 32 µM in assay [1], in assay [2] and in assay [3] were 12%, -14% and 101%, respectively. Moreover, the figures for the inhibition at 160 µM in assay [1], in assay [2] and in assay [3] were 97%, 40% and 101%, respectively. The inhibition at 390 µM in assay [1] is 96%; in assay [2], 59%; in assay [3] it was 99%; in assay [4] it was -32%; in assay [5], -2%; in assay [6], 72%.

In the case of `CCCCCCCCCCNC(=O)[C@@H]1CCN1` [Compound 289, (S)-(−)-2-azetidinecarboxylic acid n-decyl amide], the inhibition at 32 µM in assay [1] was 9%; in assay [2] it was -8%; in assay [3] it was 39%. Further, the inhibition at 160 µM is -2% in assay [1], 45% in assay [2] and 101% in assay [3]. Moreover, the inhibition at 390 µM in assay [1] is 77%; in assay [2], 99%; in assay [3] it was 101%; in assay [4], -54%; in assay [5], 19%; in assay [6], 84%.

With `CCCCCCCCCCCCNC(=O)[C@@H]1CCN1` [Compound 290], the inhibition at 32 µM in assay [1] was 6%; in assay [2], -12%; in assay [3], 101%. The inhibition at 160 µM was -16% in assay [1], 98% in assay [2] and 100% in assay [3]. Further, the inhibition at 390 µM in assay [1] is 37%; in assay [2] it was 93%; in assay [3] it was 97%; in assay [4], -72%; in assay [5], 21%; in assay [6], 82%.

Values taken from patent US7018642B2 (The Procter & Gamble Company, priority 2001, dated 2006).
